{"source": "paper PMC6527550", "about": "“Discovery of processive catalysis by an exo-hydrolase with a pocket-shaped active site” (Nature Communications, 2019)", "key": {"[1]": {"molecular_target": "native HvExoI (Hordeum vulgare, UniProt Q9XEI3)", "sequence (Q9XEI3 entry or part of it)": "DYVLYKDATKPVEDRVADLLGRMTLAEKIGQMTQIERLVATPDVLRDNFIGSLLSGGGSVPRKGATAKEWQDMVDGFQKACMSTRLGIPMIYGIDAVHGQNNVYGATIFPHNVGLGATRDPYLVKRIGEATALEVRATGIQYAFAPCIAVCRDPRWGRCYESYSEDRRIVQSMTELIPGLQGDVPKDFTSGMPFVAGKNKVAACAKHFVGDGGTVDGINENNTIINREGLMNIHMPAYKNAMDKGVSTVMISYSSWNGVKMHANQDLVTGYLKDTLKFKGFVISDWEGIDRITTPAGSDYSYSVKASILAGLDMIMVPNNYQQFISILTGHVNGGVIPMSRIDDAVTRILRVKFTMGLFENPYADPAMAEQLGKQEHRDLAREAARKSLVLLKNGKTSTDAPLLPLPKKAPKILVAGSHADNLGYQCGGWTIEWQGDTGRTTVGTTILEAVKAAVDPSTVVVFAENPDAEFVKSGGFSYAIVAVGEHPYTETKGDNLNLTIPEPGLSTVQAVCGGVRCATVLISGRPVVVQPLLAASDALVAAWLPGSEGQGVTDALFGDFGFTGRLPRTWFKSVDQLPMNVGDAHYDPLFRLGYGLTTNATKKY", "assay": "Inhibition kinetics (Ki) with 4-nitrophenyl β-D-glucopyranoside substrate", "assay_type": "biochemical, barley (Hordeum vulgare)", "conditions": "for ΔG: calculated from Ki; for ΔG / Ki: native HvExoI; for Ki: inhibition kinetics, 4-nitrophenyl β-D-glucopyranoside substrate, 30 °C, pH 5.25", "protocol": "Ki values of deoxy-glucose and alkyl β-D-glucoside derivatives, and G2SG-OMe with native HvExoI were derived from hydrolytic rates. Enzyme inactivation was monitored at 30 °C by incubating […] of the enzyme in 100 mM sodium acetate buffer, pH 5.25, containing 0.8–6.6 mM 4NPGlc as a substrate, 160 μg/ml BSA, and 3dGlc, 4dGlc, octyl-O-Glc, octyl-S-Glc and G2SG-OMe. Each inhibitor was tested at six concentrations at 0.4–3 times the Ki values in duplicate. We used the v = Vmax S / [KM × (1 + I/Ki) + S] equation to calculate Ki constant; Ki is defined as a dissociation constant of the enzyme-inhibitor complex. The enzyme activity was monitored at 410 nm and Dixon plots were used to determine Ki under the pseudo-first-order rate limiting conditions by a non-linear regression analysis, as described previously."}, "[2]": {"molecular_target": "recombinant HvExoI (Hordeum vulgare, UniProt Q9XEI3)", "sequence (Q9XEI3 entry or part of it)": "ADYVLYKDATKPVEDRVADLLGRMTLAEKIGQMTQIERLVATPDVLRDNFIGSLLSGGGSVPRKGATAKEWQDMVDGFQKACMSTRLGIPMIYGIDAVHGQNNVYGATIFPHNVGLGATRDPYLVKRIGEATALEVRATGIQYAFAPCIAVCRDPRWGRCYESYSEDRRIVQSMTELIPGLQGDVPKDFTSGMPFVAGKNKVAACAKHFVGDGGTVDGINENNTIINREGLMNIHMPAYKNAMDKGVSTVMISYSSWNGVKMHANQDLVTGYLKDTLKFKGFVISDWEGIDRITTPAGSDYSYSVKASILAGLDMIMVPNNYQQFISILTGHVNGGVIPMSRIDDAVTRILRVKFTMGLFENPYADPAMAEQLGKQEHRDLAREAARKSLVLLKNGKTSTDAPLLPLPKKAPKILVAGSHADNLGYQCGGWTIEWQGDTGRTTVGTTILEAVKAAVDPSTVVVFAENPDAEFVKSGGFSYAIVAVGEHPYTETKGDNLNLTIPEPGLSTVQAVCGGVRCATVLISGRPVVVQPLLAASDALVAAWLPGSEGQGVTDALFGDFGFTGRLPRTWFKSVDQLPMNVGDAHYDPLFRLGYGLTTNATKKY", "assay": "Steady-state affinity binding by Surface Plasmon Resonance", "design": "species or system barley (Hordeum vulgare)", "conditions": "for ΔG: calculated from KD", "protocol": "Interaction between recombinant HvExoI and analytes Glc (molecular mass 180.2 g), G6SG-OMe (372.4 g) and PEG (n = 5–10); (380–420 g) were performed using Surface Plasmon Resonance (SPR) at 25 °C using the Biacore X100 V2.0.1 instrument (GE Healthcare, USA) equipped with the plus package. Purified recombinant HvExoI at 99% homogeneity (detected by SDS-PAGE) was covalently attached to a CM5 chip (GE Healthcare) in 10 mM sodium acetate buffer, pH 5.0. The carboxymethyl groups present on the dextran layer of the CM5 chip were activated with 1-ethyl-3-(3-dimethylaminopropyl) carbodiimide hydrochloride (EDC) and N-hydroxysuccinimide (NHS) (GE Healthcare). Any unoccupied reactive sites were blocked by a 7 min injection of 1 M ethanolamine hydrochloride-NaOH, pH 8.5. A ligand density of ~15.000 RU of recombinant HvExoI was achieved. Due to the fast rate constants of interactions, it was impossible to obtain individual rate constants ka and kd. […] For each interaction serial dilutions of analytes covering the 10 · KD − 0.1 · KD concentration ranges were prepared in 10 mM HEPES-NaOH buffer, pH 7.4 with 150 mM NaCl. Samples were injected onto the surface of a chip at a rate of 30 µl/min for 90 s, after which the formed enzyme/analyte complexes could dissociate for 90 s. As all analytes dissociated completely from the surface of the recombinant enzyme immobilised on a chip, no regeneration steps were needed. All responses were double referenced using a blank-immobilised reference surface (NHS + EDC-activated/deactivated) and a series of blank injections conducted to account for the system and injection artefacts. For each analyte at least one concentration was injected in duplicate. Triplicate experiments were performed, and the double-referenced data were globally fitted using a 1:1 equilibrium interaction model and the Biacore T200 v2.0 analysis software (GE Healthcare). Steady-state affinity binding constants KD (Supplementary Fig. 3) were calculated 30 s after the onset of injections using a 5 s window in an average response in the fit."}}, "note": "Read-outs that look alike come from different tables or passages of the source.", "data": [{"smiles": "CCCCCCCCS[C@@H]1O[C@H](CO)[C@@H](O)[C@H](O)[C@H]1O", "note": "[Octyl-S-Glc, n-octyl 1-thio-β-D-glucopyranoside]", "values": [{"measurement": "ΔG", "setting": "[1]", "result": -17.2, "unit": "kJ/mol"}, {"measurement": "Ki", "setting": "[1]", "result": 1.1, "unit": "mM"}]}, {"smiles": "O=C[C@H](O)[C@@H](O)C[C@H](O)CO", "note": "[4dGlc, 4-deoxy-glucose]", "values": [{"measurement": "ΔG", "setting": "[1]", "result": -11.8, "unit": "kJ/mol"}, {"measurement": "Ki", "setting": "[1]", "result": 9.4, "unit": "mM"}]}, {"smiles": "O=C[C@H](O)C[C@H](O)[C@H](O)CO", "note": "[3dGlc, 3-deoxy-glucose]", "values": [{"measurement": "ΔG", "setting": "[1]", "result": -11.7, "unit": "kJ/mol"}, {"measurement": "Ki", "setting": "[1]", "result": 9.8, "unit": "mM"}]}, {"smiles": "CO[C@@H]1O[C@H](CS[C@@H]2O[C@H](CO)[C@@H](O)[C@H](O)[C@H]2O)[C@@H](O)[C@H](O)[C@H]1O", "note": "[G6SG-OMe, methyl 6-S-β-D-glucopyranosyl-6-thio-β-D-glucopyranoside]", "values": [{"measurement": "ΔG", "setting": "[2]; recombinant HvExoI", "result": -29.1, "unit": "kJ/mol"}, {"measurement": "Kd", "setting": "[2]; steady-state affinity, Surface Plasmon Resonance, recombinant HvExoI, 25 °C, read-out: KD", "result": 8, "unit": "µM"}]}, {"smiles": "CO[C@@H]1O[C@H](CO)[C@@H](O)[C@H](O)[C@H]1S[C@@H]1O[C@H](CO)[C@@H](O)[C@H](O)[C@H]1O", "note": "[G2SG-OMe, methyl 2-S-β-D-glucopyranosyl-2-thio-β-D-glucopyranoside]", "values": [{"measurement": "fold weaker binding than G6SG-OMe", "setting": "[1]; Ki of G2SG-OMe compared with KD of G6SG-OMe", "result": "about 320 fold"}, {"measurement": "ΔG", "setting": "[1]", "result": -15.1, "unit": "kJ/mol"}, {"measurement": "Ki", "setting": "[1]", "result": 2.55, "unit": "mM"}]}, {"smiles": "OC[C@H]1OC(O)[C@H](O)[C@@H](O)[C@@H]1O", "note": "(stereo partly drawn) [Glc]", "values": [{"measurement": "Kd", "setting": "[2]", "result": 160, "unit": "µM"}, {"measurement": "ΔG", "setting": "[2]; recombinant HvExoI", "result": -21.7, "unit": "kJ/mol"}]}, {"smiles": "CCCCCCCCO[C@@H]1O[C@H](CO)[C@@H](O)[C@H](O)[C@H]1O", "note": "[Octyl-O-Glc, n-octyl β-D-glucopyranoside]", "values": [{"measurement": "ΔG", "setting": "[1]", "result": -22.6, "unit": "kJ/mol"}, {"measurement": "Ki", "setting": "[1]", "result": 0.13, "unit": "mM"}]}]}
